Biological target: T1, Human placenta or human platelet vitronectin receptor, αvβ3 (Homo sapiens, UniProt P05106+P06756)
T1 construct: Human placenta or human platelet vitronectin receptor, αvβ3; from tissue; host or cells: human placenta or human platelets
Assay: [3H]-SK&F-107260 vitronectin receptor binding assay
Conditions: sample dissolved in 1:1 TBS:DMSO; 5 nM [3H]-SK&F-107260
Method: In vitro binding affinity of conjugates, polymeric micelles and polymer therapeutics of the present invention may be determined by receptor binding assays such as are known in the art. Conjugates, polymeric micelles and polymer therapeutics of the present invention will have a Ki (the dissociation constant of the antagonist) according to a receptor binding assay in the nanomolar to micromolar range, preferably in the nanomolar range.
The following samples were prepared for an in vitro binding assay:
Solution #1: polymer-receptor antagonist conjugate according to Example 3b, dissolved in TBS at a concentration of 10 milliMole of VRA 1.
Solution #2: PEG-PLA copolymer according to Example 2B, dissolved in TBS at a concentration of 50 mg/ml;
Solution #3: VRA 1 dissolved in 1:1 TBS:DMSO at a concentration of 10 milliMole;
Solution #4: polymer-receptor antagonist conjugate according to Example 3b, dissolved in 1:1 TBS:DMSO at a concentration of 10 milliMole VRA 1; and […]
Binding studies were carried out according to the method described by Wong et al., Studies on alphavbeta3/ligand interactions using a (^3H)SK&F-107260 binding assay, Mol. Pharmacology, 1996, 50, 529-537. […] After one hour incubation at room temperature, the wells were aspirated completely and washed twice with 100 ul of ice-cold Buffer A. Bound [^3H]-SK&F-107260 was solubilized and counted.

T1 sequence (P06756 31-889 limits assumed): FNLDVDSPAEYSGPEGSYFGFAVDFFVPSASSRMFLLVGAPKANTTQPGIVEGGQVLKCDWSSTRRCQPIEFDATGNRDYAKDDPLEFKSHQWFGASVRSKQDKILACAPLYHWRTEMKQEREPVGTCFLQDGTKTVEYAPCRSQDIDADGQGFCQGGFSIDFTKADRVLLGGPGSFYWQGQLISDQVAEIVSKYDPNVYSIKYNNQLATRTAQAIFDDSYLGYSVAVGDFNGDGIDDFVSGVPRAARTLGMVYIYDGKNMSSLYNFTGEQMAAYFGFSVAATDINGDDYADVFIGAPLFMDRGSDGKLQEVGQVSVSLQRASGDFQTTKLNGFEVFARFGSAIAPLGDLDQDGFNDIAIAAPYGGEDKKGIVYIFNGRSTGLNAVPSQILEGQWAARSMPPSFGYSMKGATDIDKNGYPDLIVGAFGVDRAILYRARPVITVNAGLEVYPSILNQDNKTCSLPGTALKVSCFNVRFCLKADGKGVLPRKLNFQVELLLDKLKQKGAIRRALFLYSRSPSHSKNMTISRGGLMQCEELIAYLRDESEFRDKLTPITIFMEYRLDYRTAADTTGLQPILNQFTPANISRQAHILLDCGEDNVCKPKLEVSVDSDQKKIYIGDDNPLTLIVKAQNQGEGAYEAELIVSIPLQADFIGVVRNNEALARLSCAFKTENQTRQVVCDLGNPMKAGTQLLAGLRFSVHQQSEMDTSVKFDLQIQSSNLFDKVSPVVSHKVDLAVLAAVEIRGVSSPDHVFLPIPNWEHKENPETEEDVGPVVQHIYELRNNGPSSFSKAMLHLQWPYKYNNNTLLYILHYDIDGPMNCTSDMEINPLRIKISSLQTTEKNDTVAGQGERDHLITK
T1 sequence (P06756 891-1048 partner limits assumed): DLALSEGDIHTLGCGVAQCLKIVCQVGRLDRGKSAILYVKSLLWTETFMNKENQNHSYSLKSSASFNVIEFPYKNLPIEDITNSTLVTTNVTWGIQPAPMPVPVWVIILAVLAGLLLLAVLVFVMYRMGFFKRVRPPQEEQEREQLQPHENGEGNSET
T1 sequence (P05106 27-788): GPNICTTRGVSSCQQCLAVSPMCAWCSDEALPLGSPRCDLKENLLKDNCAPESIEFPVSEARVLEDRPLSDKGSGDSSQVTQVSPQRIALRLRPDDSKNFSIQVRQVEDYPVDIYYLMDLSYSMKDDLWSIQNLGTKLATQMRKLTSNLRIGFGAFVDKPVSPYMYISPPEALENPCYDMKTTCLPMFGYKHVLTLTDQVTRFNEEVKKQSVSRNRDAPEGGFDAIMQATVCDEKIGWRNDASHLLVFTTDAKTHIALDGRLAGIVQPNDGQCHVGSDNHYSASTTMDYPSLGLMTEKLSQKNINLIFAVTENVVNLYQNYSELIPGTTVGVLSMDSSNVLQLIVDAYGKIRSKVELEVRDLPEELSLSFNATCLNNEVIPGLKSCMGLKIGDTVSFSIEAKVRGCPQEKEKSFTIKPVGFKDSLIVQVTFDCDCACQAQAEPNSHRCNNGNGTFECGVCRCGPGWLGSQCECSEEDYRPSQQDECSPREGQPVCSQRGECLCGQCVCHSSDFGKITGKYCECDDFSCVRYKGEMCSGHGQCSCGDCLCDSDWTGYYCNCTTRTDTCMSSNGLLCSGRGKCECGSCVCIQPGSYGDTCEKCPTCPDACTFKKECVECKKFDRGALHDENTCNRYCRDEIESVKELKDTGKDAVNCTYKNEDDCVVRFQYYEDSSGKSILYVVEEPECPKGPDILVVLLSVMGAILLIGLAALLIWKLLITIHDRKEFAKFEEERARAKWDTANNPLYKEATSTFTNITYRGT

- Ki: 1.7 nM
Compound: CN1Cc2cc(C(=O)N(CCCCN)Cc3nc4ccccc4[nH]3)ccc2N[C@@H](CC(=O)O)C1=O [VRA 1, (S)-7-[[N-(4-Aminobutyl)-N-(benzimidazol-2-ylmethyl)]amino]carbonyl-4-methyl-3-oxo-2,3,4,5-tetrahydro-1H-1,4-benzodiazepine-2-acetic acid]

From patent publication US20040208844A1, “Products and drug delivery vehicles” (priority 2001, published 2004)
